# According to PubChem BioAssay (NCI):
#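 Growth conditions: 96-well plates. Treatment: test compound, 48 hours, 5 concentrations. Analysis: linear interpolation between bracketing concentrations; unreached endpoints set to highest concentration. Abbreviation: GI50, concentration required for 50% inhibition of growth. The concentration for full growth arrest is given as TGI.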
# Legend:
# Assay in all cases: NCI-60 cell line screen, 48 h
# [1] = tested on: MDA-MB-435
# [2] = tested on: OVCAR-5 ovarian
# [3] = tested on: SF-295 CNS
# [4] = tested on: MDA-MB-231 breast
# [5] = tested on: HCC-2998 colon
# [6] = tested on: NCI-H23 lung
# [7] = tested on: HOP-62 NSCLC
# [8] = tested on: DMS 114 small cell lung
# [9] = tested on: KM20L2 colon
# [10] = tested on: DMS 273 small cell lung
SMILES,GI50 [1] [µM],TGI [1] [µM],GI50 [2] [µM],TGI [2] [µM],GI50 [3] [µM],TGI [3] [µM],GI50 [4] [µM],TGI [4] [µM],GI50 [5] [µM],TGI [5] [µM],GI50 [6] [µM],TGI [6] [µM],GI50 [7] [µM],TGI [7] [µM],TGI [8] [µM],TGI [9] [µM],TGI [10] [µM]
COc1ccc2c(C(=O)NCCCCCC(=O)O)cc3cc4c(cc3c2c1)OCO4,> 100,> 100,> 100,> 100,> 100,> 100,99.5,> 100,> 100,> 100,> 100,> 100,> 100,> 100,–,–,–
CCc1cc(Cc2cc(CC)cc(C(C)(C)C)c2O)c(O)c(C(C)(C)C)c1,2.35,7.16,9.69,21.4,2.06,4.88,1.87,3.92,2.42,6.52,3.33,12.5,4.39,17.1,–,–,–
Cc1cnc2n(c1=O)Cc1ccccc1CO2,25.9,> 72.1,27.4,> 92.4,33.2,> 100,11.8,32,16,31.4,21.1,60.5,20,38,–,–,–
COc1ccc(/C=C/c2cnnc3ccccc23)cc1OC,–,> 10,–,> 10,–,> 10,–,> 10,–,> 10,–,> 10,–,> 10,–,–,–
Nc1c(S(=O)(=O)O)cc2c(c1Cl)C(=O)c1ccccc1C2=O,> 100,> 100,> 100,> 100,> 100,> 100,> 100,> 100,> 100,> 100,> 100,> 100,> 100,> 100,–,–,–
COc1ccc(/C=C2\CCC(CN(C)C)C2=O)cc1 (centres undefined),–,3.63,–,30,–,32.1,–,–,–,19.1,–,18.3,–,33.6,21.6,36.8,–
O=P1(NCCCl)OCCC(OO)N1CCCl (centres undefined),–,> 100,–,> 100,–,> 100,–,> 100,–,> 100,–,> 84.8,–,> 100,> 100,> 100,> 100
NCCCSCC(=O)O,–,–,–,> 100,–,> 100,–,–,–,> 100,–,> 100,–,–,> 100,> 100,> 100
COC(=O)C1=CCS(=O)(=O)C1,–,–,–,> 100,–,> 100,–,–,–,> 100,–,> 100,–,> 100,> 100,> 100,–
O=C1C2Cc3ccccc3CN2C(=O)N1CCN1CCOCC1 (centres undefined),–,–,–,> 100,–,> 100,–,–,–,> 100,–,> 100,–,> 100,> 100,> 100,> 100
CC(NC(=O)C1(N)CCCC1)C(=O)O (centres undefined),–,> 100,–,> 100,–,> 100,–,> 100,–,> 100,–,> 100,–,> 100,–,–,–
COc1ccc(/C=C\c2cc(OC)c(OC(C)=O)c(OC)c2)cc1,–,–,–,88.8,–,–,–,–,–,36.7,–,63.4,–,85.6,61.7,> 100,> 100
C=C(C=O)[C@@H]1CC=C(C=O)CC1,4.21,74.3,26.5,73,12,97.3,6.88,20.1,11.2,93.5,3.83,> 100,24.8,> 76.7,–,–,–
OCC1C2C=CC(O2)[C@H]1CO (some centres undefined),–,–,–,> 100,–,> 100,–,–,–,> 100,–,–,–,> 100,> 100,> 100,> 100
Nc1c(-c2ccc(-c3c(N)[n+]([O-])c4ccccc4[n+]3[O-])cc2)[n+]([O-])c2ccccc2[n+]1[O-],–,–,–,35.2,–,36.7,–,–,–,29.6,–,21.1,–,32.3,16.3,–,31.7
COc1cc(Nc2nccc(-c3cnn4ncccc34)n2)cc(OC)c1,0.07,0.859,0.0759,1.9,0.0572,0.721,0.0751,> 11.9,0.104,1.71,0.0579,0.586,0.0868,0.651,–,–,–
Cc1ccc(Sc2cc([N+](=O)[O-])cc(Sc3ccc(C)cc3)c2Sc2ccc(C)cc2)cc1,–,–,–,> 100,–,> 100,–,–,–,> 100,–,–,–,> 100,> 100,> 100,> 100
O=C1CCC(=O)C12CCc1ccccc12,–,–,–,–,–,> 100,–,–,–,> 100,–,> 100,–,> 100,> 100,> 100,> 100
Cc1cccc(C)c1NC(=O)/C(CC(=O)CC(c1ccccc1)c1c(O)c2ccccc2oc1=O)=N/O (centres undefined),–,> 100,–,> 100,–,> 100,–,> 100,–,> 100,–,> 100,–,> 100,–,–,–
CC(=O)Oc1cc(OC(C)=O)c(OC(C)=O)c2c1CC1C(=O)C3(CCc4ccccc43)C(=O)C1C2 (centres undefined),–,–,–,–,–,17.3,–,–,–,25.2,–,40.2,–,50.8,29.4,48.3,34.9
O=C1OC(=O)C2C1C1(c3ccccc3)OC2(c2ccccc2)c2c(Br)c(Br)c(Br)c(Br)c21 (centres undefined),–,–,–,> 100,–,> 100,–,–,–,–,–,> 100,–,> 100,> 100,> 100,> 100
